Results taken from ChEMBL document CHEMBL4732077, “Potent and orally active purine-based fetal hemoglobin inducers for treating β-thalassemia and sickle cell disease” (Eur J Med Chem, 2021).
Calls of active or inactive are those of the source. The calls are words filed in the database; no cut-off is given here.

How the values were obtained:
[1] = Induction of gamma-globin gene expression in human erythrocytes at 100 uM after 3 days by RT-PCR analysis relative to control; format: functional, Erythrocyte; conditions: time 3 day
[2] = Cytotoxicity against human erythrocytes assessed as cell viability after 3 days alamar blue assay; format: cell-based, Erythrocyte; conditions: time 3 day
[3] = test system: Erythrocyte; assay: Induction of gamma-globin gene expression in human erythrocytes at 147 uM after 3 days by RT-PCR analysis; format: functional, cell-based; conditions: time 3.0 day
[4] = test system: Erythrocyte; assay: Induction of beta-globin gene expression in human erythrocytes at 147 uM after 3 days by RT-PCR analysis; format: functional, cell-based; conditions: time 3.0 day
[5] = test system: Mus musculus; assay: Antianemic effect in sickle cell disease mouse B6 model assessed as RBC level at 100 mg/kg, ip once daily, five days a week for 4 weeks (reference value: 7.23 +/- 0.75 M/uL); format: functional
[6] = test system: Mus musculus; assay: Antianemic effect in sickle cell disease mouse B6 model assessed as hemoglobin level at 100 mg/kg, ip once daily, five days a week for 4 weeks (reference value: 7.46 +/- 0.7 g/dl); format: functional
[7] = test system: Mus musculus; assay: Antianemic effect in sickle cell disease mouse B6 model assessed as reticulocytes level at 100 mg/kg, ip once daily, five days a week for 4 weeks (reference value: 57.34 +/- 3.67 %); format: functional
[8] = test system: Mus musculus; assay: Antianemic effect in sickle cell disease mouse B6 model assessed as WBC level at 100 mg/kg, ip once daily, five days a week for 4 weeks (reference value: 34.15 +/- 5.85 K/uL); format: functional
[9] = test system: Mus musculus; assay: Antianemic effect in sickle cell disease mouse B6 model assessed as neutrophils level at 100 mg/kg, ip once daily, five days a week for 4 weeks (reference value: 13.39 +/- 4.65 K/uL); format: functional
[10] = test system: Mus musculus; assay: Antianemic effect in sickle cell disease mouse B6 model assessed as fetal hemoglobin level at 100 mg/kg, ip once daily, five days a week for 4 weeks (reference value: 0.2 +/- 0.02 %); format: functional
[11] = test system: Mus musculus; assay: Antianemic effect in sickle cell disease mouse B6 model assessed as F-cell level at 100 mg/kg, ip once daily, five days a week for 4 weeks (reference value: 1.63 +/- 0.11 %); format: functional
[12] = test system: Mus musculus; assay: Antianemic effect in sickle cell disease mouse B6 model assessed as sickle cell level at 100 mg/kg, ip once daily, five days a week for 4 weeks (reference value: 16.78 +/- 1.9 %); format: functional
[13] = Induction of gamma-globin gene expression in human erythrocytes at 1 uM after 3 days by RT-PCR analysis relative to control; format: functional, Erythrocyte; conditions: time 3 day
[14] = Induction of gamma-globin gene expression in human erythrocytes at 2 uM after 3 days by RT-PCR analysis relative to control; format: functional, Erythrocyte; conditions: time 3 day
[15] = Cytotoxicity against human erythrocytes assessed as cell viability at 2 uM after 3 days alamar blue assay relative to control; format: cell-based, Erythrocyte; conditions: time 3 day, read-out: Activity
[16] = test system: Erythrocyte; assay: Induction of gamma-globin gene expression in human erythrocytes after 3 days by RT-PCR analysis; format: functional, cell-based; conditions: dose 0.06-2 µM, time 3.0 day
[17] = test system: Erythrocyte; assay: Cytotoxicity against human erythrocytes assessed as cell viability at 4 uM after 3 days alamar blue assay; format: cell-based; conditions: 72 h, time 3 day
[18] = test system: Erythrocyte; assay: Cytotoxicity against human erythrocytes assessed as cell viability at 1 uM after 3 days alamar blue assay; format: cell-based; conditions: 72 h, time 3 day
[19] = test system: Erythrocyte; assay: Induction of gamma-globin gene expression in human erythrocytes at 0.5 to 1 uM after 3 days Western blot analysis; format: functional, cell-based; conditions: dose 0.5-1 µM, time 3.0 day
[20] = test system: Erythrocyte; assay: Induction of gamma-globin gene expression in human erythrocytes at 0.5 uM after 3 days by RT-PCR analysis; format: functional, cell-based; conditions: time 3.0 day
[21] = test system: Erythrocyte; assay: Induction of beta-globin gene expression in human erythrocytes at 0.5 uM after 3 days by RT-PCR analysis; format: functional, cell-based; conditions: time 3.0 day
[22] = Induction of gamma-globin gene expression in human HU-resistant primary erythrocytes at 0.5 uM after 3 days by RT-PCR analysis relative to control; format: functional, Erythrocyte; conditions: time 3 day
[23] = biological target: Histone deacetylase (Homo sapiens) (UniProt Q13547+O15379+Q9UBN7+Q92769+Q9UQL6+Q8WUI4+Q9BY41+Q96DB2+P56524+Q9UKV0+Q969S8); assay: Inhibition of HDAC in human erythrocyte cells assessed as increase in acetylation of histone H4 at 0.5 to 1 uM after 3 days by Western blot analysis; format: cell-based; conditions: dose 0.5-1 µM, time 3.0 day
[24] = Induction of GATA1 gene expression in human erythrocyte at 0.5 uM after 3 days by RT-PCR analysis relative to control; format: functional; conditions: time 3 day
[25] = Induction of GATA1 gene expression in human erythrocyte at 1 uM after 3 days by RT-PCR analysis relative to control; format: functional; conditions: time 3 day
[26] = Induction of NFE2L2 gene expression in human erythrocyte at 0.5 uM after 3 days by RT-PCR analysis relative to control; format: functional; conditions: time 3 day
[27] = Induction of NFE2L2 gene expression in human erythrocyte at 1 uM after 3 days by RT-PCR analysis relative to control; format: functional; conditions: time 3 day
[28] = Downregulation of c-MYB gene expression in human erythrocyte at 0.5 uM after 3 days by RT-PCR analysis relative to control; format: functional; conditions: time 3 day
[29] = Downregulation of c-MYB gene expression in human erythrocyte at 1 uM after 3 days by RT-PCR analysis relative to control; format: functional; conditions: time 3 day
[30] = Induction of CPOX gene expression in human erythrocyte at 0.5 uM after 3 days by RT-PCR analysis relative to control; format: functional; conditions: time 3 day
[31] = Induction of CPOX gene expression in human erythrocyte at 1 uM after 3 days by RT-PCR analysis relative to control; format: functional; conditions: time 3 day
[32] = test system: Erythrocyte; assay: Downregulation of […] expression in human erythrocyte at 1 uM after 3 days by Western blot analysis; format: functional, tissue-based; conditions: time 3.0 day
[33] = Half life in Sprague-Dawley rat at 5 mg/kg, iv measured upto 24 hrs by LC-MS/MS analysis; format: ADME, organism-based; conditions: in vivo
[34] = Clearance in Sprague-Dawley rat at 5 mg/kg, iv measured upto 24 hrs by LC-MS/MS analysis; format: ADME, organism-based; conditions: in vivo
[35] = Volume of distribution at steady state in Sprague-Dawley rat at 5 mg/kg, iv measured upto 24 hrs by LC-MS/MS analysis; format: ADME, organism-based; conditions: in vivo, read-out: Vdss
[36] = AUC (0 to infinity) in Sprague-Dawley rat at 5 mg/kg, iv measured upto 24 hrs by LC-MS/MS analysis; format: ADME, organism-based; set-up: route intravenous, dose 5 mg/kg, time <=24; conditions: in vivo
[37] = Half life in Sprague-Dawley rat at 20 mg/kg, po measured upto 24 hrs by LC-MS/MS analysis; format: ADME, organism-based; conditions: in vivo
[38] = Cmax in Sprague-Dawley rat at 20 mg/kg, po measured upto 24 hrs by LC-MS/MS analysis; format: ADME, organism-based; set-up: route oral, dose 20 mg/kg, time <=24; conditions: in vivo
[39] = AUC (0 to infinity) in Sprague-Dawley rat at 20 mg/kg, po measured upto 24 hrs by LC-MS/MS analysis; format: ADME, organism-based; set-up: route oral, dose 20 mg/kg, time <=24; conditions: in vivo
[40] = Oral bioavailability in Sprague-Dawley rat at 20 mg/kg measured upto 24 hrs by LC-MS/MS analysis; format: ADME, organism-based; conditions: in vivo
[41] = test system: Mus musculus; assay: Antianemic effect in sickle cell disease mouse B6 model assessed as RBC level at 50 mg/kg, po twice daily, five days a week for 4 weeks (reference value: 7.23 +/- 0.75 M/uL); format: functional
[42] = test system: Mus musculus; assay: Antianemic effect in sickle cell disease mouse B6 model assessed as hemoglobin level at 50 mg/kg, po twice daily, five days a week for 4 weeks (reference value: 7.46 +/- 0.7 g/dl); format: functional
[43] = test system: Mus musculus; assay: Antianemic effect in sickle cell disease mouse B6 model assessed as reticulocytes level at 50 mg/kg, po twice daily, five days a week for 4 weeks (reference value: 57.34 +/- 3.67 %); format: functional
[44] = test system: Mus musculus; assay: Antianemic effect in sickle cell disease mouse B6 model assessed as WBC level at 50 mg/kg, po twice daily, five days a week for 4 weeks (reference value: 34.15 +/- 5.85 K/uL); format: functional
[45] = test system: Mus musculus; assay: Antianemic effect in sickle cell disease mouse B6 model assessed as neutrophils level at 50 mg/kg, po twice daily, five days a week for 4 weeks (reference value: 13.39 +/- 4.65 K/uL); format: functional
[46] = test system: Mus musculus; assay: Antianemic effect in sickle cell disease mouse B6 model assessed as fetal hemoglobin level at 50 mg/kg, po twice daily, five days a week for 4 weeks (reference value: 0.2 +/- 0.02 %); format: functional
[47] = test system: Mus musculus; assay: Antianemic effect in sickle cell disease mouse B6 model assessed as F-cell level at 50 mg/kg, po twice daily, five days a week for 4 weeks (reference value: 1.63 +/- 0.11 %); format: functional
[48] = test system: Mus musculus; assay: Antianemic effect in sickle cell disease mouse B6 model assessed as sickle cell level at 50 mg/kg, po twice daily, five days a week for 4 weeks (reference value: 16.78 +/- 1.9 %); format: functional
[49] = test system: Mus musculus; assay: Antianemic effect in sickle cell disease mouse B6 model assessed as RBC level at 100 mg/kg, po twice daily, five days a week for 4 weeks (reference value: 7.23 +/- 0.75 M/uL); format: functional
[50] = test system: Mus musculus; assay: Antianemic effect in sickle cell disease mouse B6 model assessed as hemoglobin level at 100 mg/kg, po twice daily, five days a week for 4 weeks (reference value: 7.46 +/- 0.7 g/dl); format: functional
[51] = test system: Mus musculus; assay: Antianemic effect in sickle cell disease mouse B6 model assessed as reticulocytes level at 100 mg/kg, po twice daily, five days a week for 4 weeks (reference value: 57.34 +/- 3.67 %); format: functional
[52] = test system: Mus musculus; assay: Antianemic effect in sickle cell disease mouse B6 model assessed as WBC level at 100 mg/kg, po twice daily, five days a week for 4 weeks (reference value: 34.15 +/- 5.85 K/uL); format: functional
[53] = test system: Mus musculus; assay: Antianemic effect in sickle cell disease mouse B6 model assessed as neutrophils level at 100 mg/kg, po twice daily, five days a week for 4 weeks (reference value: 13.39 +/- 4.65 K/uL); format: functional
[54] = test system: Mus musculus; assay: Antianemic effect in sickle cell disease mouse B6 model assessed as fetal hemoglobin level at 100 mg/kg, po twice daily, five days a week for 4 weeks (reference value: 0.2 +/- 0.02 %); format: functional
[55] = test system: Mus musculus; assay: Antianemic effect in sickle cell disease mouse B6 model assessed as F-cell level at 100 mg/kg, po twice daily, five days a week for 4 weeks (reference value: 1.63 +/- 0.11 %); format: functional
[56] = test system: Mus musculus; assay: Antianemic effect in sickle cell disease mouse B6 model assessed as sickle cell level at 100 mg/kg, po twice daily, five days a week for 4 weeks (reference value: 16.78 +/- 1.9 %); format: functional
[57] = Water solubility of compound at pH 7.4 after 24 hrs by LC/MS analysis; format: physicochemical; conditions: buffer, pH 7.4, 24 h

## NC(=O)NO [HYDROXYUREA]
[1]
  fold change (FC): 2.5
[2]
  CC50 at 72 h: 147 µM
[3]
  Activity: Active
[4]
  Activity: Active
[5]
  Activity: 6.34 M/uL
[6]
  Activity: 6.7 g/dL
[7]
  Activity: 50.92%
[8]
  Activity: 23.02 K/uL
[9]
  Activity: 9.75 K/uL
[10]
  Activity: 0.23%
[11]
  Activity: 1.3%
[12]
  Activity: 14.7%

## CCN1CCN(c2nc(Nc3cccc(NC(=O)C#Cc4ccc(C)cc4)c3)c3ncn(CC)c3n2)CC1.Cl.Cl
[13]
  fold change (FC): 3.8
[14]
  fold change (FC): 4.8
[15]
  viability at 72 h, 2 µM: 72%
[16]
  Activity: Dose-dependent effect
[17]
  Activity: Toxic
[18]
  Activity: Non-Toxic
[19]
  Activity: Active
[20]
  Activity: Active
[21]
  Activity: inactive
[22]
  fold change (FC): 2
[23]
  inhibition: inactive
[24]
  fold change (FC): 1.6
[25]
  fold change (FC): 2.3
[26]
  fold change (FC): 1.7
[27]
  fold change (FC): 2.3
[28]
  fold change (FC): 0.7
[29]
  fold change (FC): 0.6
[30]
  fold change (FC): 1.8
[31]
  fold change (FC): 2.2
[32]
  Activity: Active
[33]
  half-life: 432 min
[34]
  clearance: 8.2 mL/min/kg
[35]
  Vd: 0.3 L/kg
[36]
  AUC(0-inf): 8860 ng·h/mL
[37]
  half-life: 228 min
[38]
  Cmax: 2730 ng/mL
[39]
  AUC(0-inf): 9000 ng·h/mL
[40]
  bioavailability: 25%
[41]
  Activity: 7.78 M/uL
[42]
  Activity: 8.15 g/dL
[43]
  Activity: 58.98%
[44]
  Activity: 35.85 K/uL
[45]
  Activity: 15.05 K/uL
[46]
  Activity: 0.28%
[47]
  Activity: 2.15%
[48]
  Activity: 10%
[49]
  Activity: 8.05 M/uL
[50]
  Activity: 8.05 g/dL
[51]
  Activity: 54.66%
[52]
  Activity: 44.12 K/uL
[53]
  Activity: 15.64 K/uL
[54]
  Activity: 0.3%
[55]
  Activity: 2.42%
[56]
  Activity: 8.8%
[57]
  solubility: 3380 ng/mL
